Measurements: patent publication US20200375987A1, “METALLO-BETA-LACTAMASE INHIBITORS AND METHODS OF USE THEREOF” (priority 2018, published 2020)

Legend:
[1] = target: VIM-2 (Escherichia coli, UniProt Q5U7L7); assay: Enzyme activity: determination of IC50 (VIM-2); assay type: biochemical; conditions: read-out: VIM2 IC50
[2] = target: IMP-1 (Serratia marcescens, UniProt P52699); assay: Enzyme activity: determination of IC50, fluorescence assay with CCF2-FA substrate (IMP-1); assay type: biochemical; conditions: 2 pM enzyme, 1.25 μM CCF2-FA, 2 hours at 25° C.; read-out: IMP1 IC50
Chain of IMP-1 (P52699 19-246, looked up, species assumed): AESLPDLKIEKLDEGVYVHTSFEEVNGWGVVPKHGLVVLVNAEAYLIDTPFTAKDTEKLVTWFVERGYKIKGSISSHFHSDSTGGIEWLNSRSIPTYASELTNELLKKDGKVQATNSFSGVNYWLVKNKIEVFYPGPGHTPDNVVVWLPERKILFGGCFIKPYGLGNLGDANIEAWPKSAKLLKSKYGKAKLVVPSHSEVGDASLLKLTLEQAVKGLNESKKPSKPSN
Protocol: (§1) The Class B enzyme activities were measured in the presence of the test inhibitor in a fluorescence assay against a commercially available substrate consisting of a cephalosporin core linking 7-hydroxycoumarin to fluorescein (CCF2-FA). The enzyme (NDM-1, IMP-1 or VIM-1) and the substrate were diluted in 100 mM KH2PO4 buffer (pH 7) containing 0.005% Tween-20 and 10 μM ZnSO4. In the assay, the final concentration of enzyme was 1 pM, 2 pM and 30 pM for NDM-1, IMP-1 and VIM-1, respectively, and the final concentration of CCF2-FA was 1.25 μM. The test inhibitor was dissolved in dimethylsulfoxide and diluted 1:50 in the assay, resulting in a final concentration range of 20 μM to 0.00063 μM. In a 384-well microplate, the test inhibitor was incubated with the metallo-β-lactamase enzyme and the substrate for 2 hours at 25° C. Fluorescence at 460 nm following excitation at 405 nm was measured. The IC50 value was determined from semi-logarithmic plots of enzyme inhibition versus inhibitor concentration, with a curve generated using a 4-parameter fit.

[3] = tested on: Escherichia coli expressing NDM-1 (CLB30016); assay: Antibiotic potentiation activity: synergistic concentration (MITC95) with imipenem; assay type: cell-based; conditions: imipenem 1 μg/mL; lowest concentration inhibiting 95% of growth; 35° C., 22-24 hours
Protocol: (§2) The bacterial strains tested included the clinical strains Escherichia coli expressing NDM-1 (CLB30005, CLB30016), Serratia marcescens expressing IMP-1 (CL5741), and Klebsiella pneumoniae expressing VIM-1 (IHMA599644). Inhibitor activity was measured in the presence and absence of imipenem in a 384-well microplate.
(§3) The clinical strains CLB30016, CL5741 and IHMA599644 were grown on trypticase soy agar containing 5% sheep's blood. The bacteria on agar plates were incubated at 35° C. with humidity overnight. The following day, individual colonies from each clinical strain were picked and resuspended in 5 mL saline to attain an OD600 of 0.14, 0.11, 0.15 and 0.13, for CLB30016, CL5741 and IHMA599644, respectively. These were further diluted 1:100 into 1.1× CAMHB and used to inoculate the test wells as described below.
(§4) Imipenem in 10 mM 3-(N-morpholino)propanesulfonic acid (MOPS, pH 7) was stored in single use aliquots at −80° C. […] On the day of the assay, 4 μl of antibiotic was added to 45 μl of bacteria followed by 1 μl of test compound and mixed by pipetting and with an orbital shaker. The concentration of antibiotic used in the assay was 1 μg/mL. Microplates were covered and incubated at 35° C. for 22 hours to 24 hours. At the end of the incubation, absorbance was determined using a spectrophotometer. The synergistic concentration of MBLI was determined by identifying the lowest concentration of test compound in the presence of a given concentration of antibiotic that was required to inhibit 95% of the growth of the bacteria. The results for Examples 1-209 are reported in Table 1, expressed as the concentration of compound that potentiated the action of antibiotic (imipenem) affecting 95% inhibition of bacterial growth (MITC95).

[4] = tested on: Klebsiella pneumoniae expressing VIM-1 (IHMA599644); assay: as above; assay type: cell-based; conditions: imipenem 1 μg/mL; lowest concentration inhibiting 95% of growth; 35° C., 22-24 hours
Protocol: as §2, §3, §4

[5] = tested on: Serratia marcescens expressing IMP-1 (CL5741); assay: as above; assay type: cell-based; conditions: imipenem 1 μg/mL; lowest concentration inhibiting 95% of growth; 35° C., 22-24 hours
Protocol: as §2, §3, §4

[6] = target: VIM-1 (Pseudomonas aeruginosa, UniProt A0A0F7KYQ8); assay: Enzyme activity: determination of IC50, fluorescence assay with CCF2-FA substrate (VIM-1); assay type: biochemical; conditions: 30 pM enzyme, 1.25 μM CCF2-FA, 2 hours at 25° C.; read-out: VIM1 IC50
Protocol: as §1

[7] = tested on: P. aeruginosa MB9798 (efflux WT, IMP-1); assay: Efflux: concentration of MBL inhibitor restoring susceptibility to imipenem (MITC95), efflux+ strain; assay type: cell-based, Pseudomonas aeruginosa; conditions: imipenem at 2 μg/mL in the presence of a class A, C, D serine β-lactamase inhibitor closely related to relebactam
Description: (§5) In order to assess the contribution of efflux to lack of whole cell inhibition of metallo-beta-lactamase inhibitors of formula I, tool strains were constructed. The strain background is Pseudomonas aeruginosa PAO1. A wild-type (MB5919) and an isogenic strain in which multiple efflux pumps have been disrupted genetically were used. The MBL IMP-1, obtained from a clinical isolate was introduced into the strain pair by the following process:
(§6) Plasmid DNA (encoding IMP-1) was extracted from CL 5673 (IMP-1, P. aeruginosa clinical strain) by standard techniques. The plasmid DNA was transformed into parental MB5919 (oprD+, efflux+, inducible AmpC) and MB5890 (oprD+, efflux−, inducible AmpC) isogenic strains by electroporation. These transformed strains were plated onto cation-adjusted Muller-Hinton agar plates containing ceftazidime at 32 μg/mL (MB5919) and 16 μg/mL (MB5890) to select for those cells in which the IMP-1-expressing plasmid was introduced successfully, resulting in resistance to ceftazidime. Agarose-gel electrophoresis of PCR product for IMP-1 from the successful transformants was used to compare to control and to the original strain from which the plasmid was obtained, confirming transfer of the IMP-1 gene (data not shown).
(§7) The strain set was then used as a pair to determine the effect of metallo-β-lactamase inhibitors of Formula Ion the MIC of imipenem and/or ceftazidime. A fixed concentration of antibiotic is included in standard microbroth MIC tests, usually at the CLSI breakpoint concentration. A fixed amount of a class A/C beta-lactamase inhibitor is also included to inhibit the resident Pseudomonas AmpC enzyme. A serial titration of the metallo-β-lactamase inhibitor was included and the concentration of metallo-β-lactamase inhibitor which restores susceptibility of the strain to the included antibiotic was recorded. That concentration of metallo-β-lactamase inhibitor was then compared between the two strains to determine the fold difference between the efflux+(MB9798) and efflux−(MB9799) strains, which indicates n the extent to which the MBLi is subject to efflux.

[8] = tested on: P. aeruginosa MB9799 (efflux mutant, IMP-1); assay: Efflux: concentration of MBL inhibitor restoring susceptibility to imipenem (MITC95), efflux− strain; assay type: cell-based, Pseudomonas aeruginosa; conditions: imipenem at 2 μg/mL in the presence of a class A, C, D serine β-lactamase inhibitor closely related to relebactam
Description: as §5, §6, §7

[9] = target: NDM-1 (Klebsiella pneumoniae, UniProt C7C422); assay: Enzyme activity: determination of IC50, fluorescence assay with CCF2-FA substrate (NDM-1); assay type: biochemical; conditions: 1 pM enzyme, 1.25 μM CCF2-FA, 2 hours at 25° C.; read-out: NDM1 IC50
Chain of NDM-1 (C7C422 29-270, looked up, species assumed): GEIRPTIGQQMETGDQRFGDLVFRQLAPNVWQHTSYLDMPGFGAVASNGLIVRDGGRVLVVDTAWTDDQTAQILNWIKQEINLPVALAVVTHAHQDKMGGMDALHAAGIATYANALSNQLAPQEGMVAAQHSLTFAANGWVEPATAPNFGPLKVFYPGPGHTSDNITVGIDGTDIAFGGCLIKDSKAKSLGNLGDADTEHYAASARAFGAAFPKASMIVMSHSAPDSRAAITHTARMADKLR
Protocol: as §1

Row | Structure (SMILES) | IC50 [1] [nM] | IC50 [2] [nM] | CLB30016 E.coli MITC95 NDM [3] [µM] | IHMA599644 K.pneumoniae MITC95 uM VIM [4] [µM] | CL5741 S.marcescens MITC95 uM IMP [5] [µM] | IC50 [6] [nM] | MB9798 MITC95 P. aeruginosa Efflux WT [7] [µM] | MB9799 MITC95 P. aeruginosa Efflux Mutant [8] [µM] | IC50 [9] [nM]
1 | NS(=O)(=O)c1c(S(=O)(=O)N[C@@H]2CCNC2)ccc(N2CCn3ncnc3C2)c1-c1nn[nH]n1 [Example 1, (R)-4-(5,6-dihydro-[1,2,4]triazolo[1,5-a]pyrazin-7(8H)-yl)-N′-(pyrrolidin-3-yl)-3-(2H-tetrazol-5-yl)benzene-1,2-disulfonamide] | 0.99 | 4.03 | 3.13 | 6.25 | 1.56 | 0.29 | 6.25 | 1.56 | 1.57
2 | NS(=O)(=O)c1c(S(=O)(=O)N[C@@H]2CCNC2)ccc(N2CCn3cncc3C2)c1-c1nn[nH]n1 [Example 2, (R)-4-(5,6-dihydroimidazo[1,5-a]pyrazin-7(8H)-yl)-N^1-(pyrrolidin-3-yl)-3-(2H-tetrazol-5-yl)benzene-1,2-disulfonamide] | 0.68 | 2.01 | 0.20 | 1.56 | 0.78 | 0.16 | 3.13 | 0.78 | 0.3
3 | NC[C@@H](O)CNS(=O)(=O)c1ccc(N2CCc3nc(N)[nH]c3C2)c(-c2nn[nH]n2)c1S(N)(=O)=O [Example 3, (R)—N^1-(3-amino-2-hydroxypropyl)-4-(2-amino-3,4,6,7-tetrahydro-5H-imidazo[4,5-c]pyridin-5-yl)-3-(2H-tetrazol-5-yl)benzene-1,2-disulfonamide] | 72.8 | 5.72 | 0.78 | 6.25 | 3.13 | 22.6 | 6.25 | 1.56 | 2.23
4 | NS(=O)(=O)c1c(S(=O)(=O)N[C@@H]2CCNC2)ccc(N2CCn3nc(C(F)(F)F)nc3C2)c1-c1nn[nH]n1 [Example 4, (R)—N^1-(pyrrolidin-3-yl)-3-(2H-tetrazol-5-yl)-4-(2-(trifluoromethyl)-5,6-dihydro-[1,2,4]triazolo[1,5-a]pyrazin-7(8H)-yl)benzene-1,2-disulfonamide] | 0.48 | 2.18 | 3.13 | 6.25 | 6.25 | 0.35 | 25.00 | 3.13 | 2.25
5 | CCOC(=O)c1cn2c(n1)N(c1ccc(S(=O)(=O)N[C@@H]3CCNC3)c(S(N)(=O)=O)c1-c1nn[nH]n1)CCC2 [Example 5, ethyl (R)-8-(4-(N-(pyrrolidin-3-yl)sulfamoyl)-3-sulfamoyl-2-(2H-tetrazol-5-yl)phenyl)-5,6,7,8-tetrahydroimidazo[1,2-a]pyrimidine-2-carboxylate] | 0.55 | 0.96 | 12.50 | 12.50 | 6.25 | 0.12 | 6.25 | 3.13 | 0.04
6 | NS(=O)(=O)c1c(S(=O)(=O)N[C@@H]2CCNC2)ccc(N2CCCn3cnnc32)c1-c1nn[nH]n1 [Example 6, (R)-4-(6,7-dihydro-[1,2,4]triazolo[4,3-a]pyrimidin-8(5H)-yl)-N^1-(pyrrolidin-3-yl)-3-(2H-tetrazol-5-yl)benzene-1,2-disulfonamide] | 1.13 | 6.8 | 0.78 | 6.25 | 3.13 | 0.24 | 3.13 | 3.13 | 0.72
7 | NS(=O)(=O)c1c(S(=O)(=O)N[C@@H]2CCNC2)ccc(N2CCCn3nccc32)c1-c1nn[nH]n1 [Example 7, (R)-4-(6,7-dihydropyrazolo[1,5-a]pyrimidin-4(5H)-yl)-N^1-(pyrrolidin-3-yl)-3-(2H-tetrazol-5-yl)benzene-1,2-disulfonamide] | 0.66 | 2.81 | 6.25 | 6.25 | 3.13 | 0.13 | 3.13 | 1.56 | 0.14
8 | NS(=O)(=O)c1c(S(=O)(=O)N[C@@H]2CCNC2)ccc(N2CCCn3ncnc32)c1-c1nnn[nH]1 [Example 8, (R)-4-(6,7-dihydro-[1,2,4]triazolo[1,5-a]pyrimidin-4(5H)-yl)-N1-(pyrrolidin-3-yl)-3-(1H-tetrazol-5-yl)benzene-1,2-disulfonamide] | 1.09 | 6.63 | 3.13 | 12.50 | 6.25 | 0.2 | 3.13 | 6.25 | 0.47
9 | NS(=O)(=O)c1c(S(=O)(=O)N[C@@H]2CCNC2)ccc(N2CCn3ccnc3C2)c1-c1nnn[nH]1 [Example 9, (R)-4-(5,6-dihydroimidazo[1,2-a]pyrazin-7(8H)-yl)-N1-(pyrrolidin-3-yl)-3-(1H-tetrazol-5-yl)benzene-12-disulfonamide] | 0.49 | 2.17 | 0.39 | 1.56 | 0.20 | 0.1 | 1.56 | 0.78 | 0.48
